Laboratory results: patent publication US20090306392A1, “GSM INTERMEDIATES” (priority 2007, published 2009)

System: γ-secretase
Assay: Screening for γ-secretase-modulating activity in SKNBE2 cells carrying APP 695-wild type
Assay type: cell-based
Settings: SKNBE2 cells carrying the APP 695-wild type; for EC50: read-out: EC 50 WTAPP

EC50	Molecule	further results
360 nM	CCC(c1ccc(C(F)(F)F)cc1)N1CCCC(c2cc(-c3ccc(C(F)(F)F)cc3)cc([C@@H](CC(C)C)C(=O)O)c2)C1 (single isomer, unassigned) [Example 26, (R*)4-Methyl-2-(4′-trifluoromethyl-5-{1-[1-(4-trifluoromethyl-phenyl)-propyl]-piperidin-3-yl}-biphenyl-3-yl)-pentanoic Acid]	
590 nM	CCC(c1ccc(C(F)(F)F)cc1)N1CCCC(c2cc(-c3ccc(C(F)(F)F)cc3)cc([C@H](CC(C)C)C(=O)O)c2)C1 (single isomer, unassigned) [Example 35, (S*)4-Methyl-2-(4′-trifluoromethyl-5-{1-[1-(4-trifluoromethyl-phenyl)-propyl]-piperidin-3-yl}-biphenyl-3-yl)-pentanoic Acid]	
	CC(C)CCC(c1ccc(C(F)(F)F)cc1)N1CCCC(c2cc(-c3ccc(C(F)(F)F)cc3)cc([C@@H](CC(C)C)C(=O)O)c2)C1 (single isomer, unassigned) [Example 37, (R*)4-Methyl-2-(5-{1-[4-methyl-1-(4-trifluoromethyl-phenyl)-pentyl]-piperidin-3-yl}-4′-trifluoromethyl-biphenyl-3-yl)-pentanoic Acid]	% @ 0.3 uM (WTAPP): 44% @ 0.3 uM
530 nM	CC(C)C[C@@H](C(=O)O)c1cc(OCc2cc(F)cc(F)c2)cc(-c2ccc(C(F)(F)F)cc2)c1 [Example 1, (R)2-[5-(3,5-Difluoro-benzyloxy)-4′-trifluoromethyl-biphenyl-3-yl]-4-methyl-pentanoic Acid]	
1520 nM	CC(C)C[C@H](C(=O)O)c1cc(OCc2cc(F)cc(F)c2)cc(-c2ccc(C(F)(F)F)cc2)c1 [Example 2, (S)-2-[5-(3,5-Difluoro-benzyloxy)-4′-trifluoromethyl-biphenyl-3-yl]-4-methyl-pentanoic Acid]	
570 nM	CC(C)C[C@@H](C(=O)O)c1cc(OCc2ccc(F)cc2C(F)(F)F)cc(-c2ccc(C(F)(F)F)cc2)c1 [Example 3, (R)-2-[5-(4-fluoro-2-trifluoromethyl-benzyloxy)-4′-trifluoromethyl-biphenyl-3-yl]-4-methyl-pentanoic Acid]	
310 nM	CC(C)CC(C(=O)O)c1cc(OCc2cc(F)cc(F)c2)cc(-c2ccc(Cl)c(C(F)(F)F)c2)c1 (centres unmarked) [Example 4, 2-[4′-Chloro-5-(3,5-difluoro-2-benzyloxy)-3′-trifluoromethyl-biphenyl-3-yl]-4-methyl-pentanoic Acid]	
190 nM	CC(C)CC(C(=O)O)c1cc(-c2ccc(C(F)(F)F)cc2)cc(-c2cc(F)cc(F)c2)c1 (centres unmarked) [Example 5, 2-(3,5-Difluoro-4″-trifluoromethyl-[1,1′;3′,1″]terphenyl-5′-yl)-4-methyl-pentanoic Acid]	
140 nM	CC(C)CC(C(=O)O)c1cc(-c2ccc(C(F)(F)F)cc2)cc(-c2ccc(OC(F)(F)F)c(F)c2)c1 (centres unmarked) [Example 6, 2-(3-Fluoro-4-trifluoromethoxy-4″-trifluoromethyl-[1,1′;3′,1″]terphenyl-5′-yl)-4-methyl-pentanoic Acid]	
	CC(C)CC(C(=O)O)c1cc(Nc2cc(F)cc(F)c2)cc(-c2ccc(C(F)(F)F)cc2)c1 (centres unmarked) [Example 9, 2-[5-(3,5-Difluoro-phenylamino)-4′-trifluoromethyl-biphenyl-3-yl]-4-methyl-pentanoic Acid]	inhibition @ 3 uM (WTAPP): 73% inhibition @ 3 uM
290 nM	CC(C)CC(C(=O)O)c1cc(Nc2ccc(C(C)C)cc2)cc(-c2ccc(C(F)(F)F)cc2)c1 (centres unmarked) [Example 11, 2-[5-(4-Isopropyl-phenylamino)-4′-trifluoromethyl-biphenyl-3-yl]-4-methyl-pentanoic Acid]	
150 nM	CC(C)C[C@@H](C(=O)O)c1cc(Nc2cc(C(F)(F)F)ccc2C(F)(F)F)cc(-c2ccc(C(F)(F)F)cc2)c1 [Example 12, (R)2-[5-(2,5-Bis-trifluoromethyl-phenylamino)-4′-trifluoromethyl-biphenyl-3-yl]-4-methyl-pentanoic Acid]	
	CC(C)CC(C(=O)O)c1cc(-c2ccc(C(F)(F)F)cc2)cc(N(C)c2ccc(C(F)(F)F)cc2)c1 (centres unmarked) [Example 13, 4-Methyl-2-{5-[methyl-(4-trifluoromethyl-phenyl)-amino]-4′-trifluoromethyl-biphenyl-3-yl}-pentanoic Acid]	% @ 0.3 uM (WTAPP): 21% @ 0.3 uM
170 nM	CC(C)CCN(c1ccc(C(F)(F)F)cc1)c1cc(-c2ccc(C(F)(F)F)cc2)cc(C(CC(C)C)C(=O)O)c1 (centres unmarked) [Example 14, 4-Methyl-2-{5-[(3-methyl-butyl)-(4-trifluoromethyl-phenyl)-amino]-4′-trifluoromethyl-biphenyl-3-yl}-pentanoic Acid]	
150 nM	CC(C)CCN(c1ccc(Cl)cc1)c1cc(-c2ccc(C(F)(F)F)cc2)cc(C(CC(C)C)C(=O)O)c1 (centres unmarked) [Example 15, 2-{5-[(4-Chloro-phenyl)-(3-methyl-butyl)-amino]-4′-trifluoromethyl-biphenyl-3-yl}-4-methyl-pentanoic Acid]	
	CC(C)CC(C(=O)O)c1cc(Oc2cccc(C(C)C)c2)cc(-c2ccc(C(F)(F)F)cc2)c1 (centres unmarked) [Example 16, 2-[5-(3-Isopropyl-phenoxy)-4′-trifluoromethyl-biphenyl-3-yl]-4-methyl-pentanoic Acid]	inhibition @ 3 uM (WTAPP): 64% inhibition @ 3 uM

EC50	Molecule	further results
140 nM	CC(C)CC(C(=O)O)c1cc(Oc2cc(F)cc(C(F)(F)F)c2)cc(-c2ccc(Cl)c(C(F)(F)F)c2)c1 (centres unmarked) [Example 17, 4-Methyl-2-[4′-chloro-3′-trifluoromethyl-5-(3-fluoro-5-trifluoromethylphenoxy)-biphenyl-3-yl]-pentanoic Acid]	
330 nM	CC(C)CC(C(=O)O)c1cc(Oc2cc(F)cc(C(F)(F)F)c2)cc(-c2ccc(C(F)(F)F)cc2)c1 (centres unmarked) [Example 18, 2-[5-(3-Fluoro-5-trifluoromethyl-phenoxy)-4′-trifluoromethyl-biphenyl-3-yl]-4-methyl-pentanoic Acid]	
220 nM	CC(C)CC(C(=O)O)c1cc(-c2ccc(C(F)(F)F)cc2)cc(-c2cc(F)nc(F)c2)c1 (centres unmarked) [Example 19, 2-[5-(2,6-Difluoro-pyridin-4-yl)-4′-trifluoromethyl-biphenyl-3-yl]-4-methyl-pentanoic Acid]	
320 nM	CC(C)CC(C(=O)O)c1cc(-c2ccc(C(F)(F)F)cc2)cc(-c2ccc(C(F)(F)F)cn2)c1 (centres unmarked) [Example 20, 4-Methyl-2-[4′-trifluoromethyl-5-(5-trifluoromethyl-pyridin-2-yl)-biphenyl-3-yl]-pentanoic Acid]	
230 nM	CC(C)CCC(Oc1cc(-c2ccc(C(F)(F)F)cc2)cc(C(CC(C)C)C(=O)O)c1)c1cc(F)cc(F)c1 (centres unmarked) [Example 21, 2-{5-[1-(3,5-Difluoro-phenyl)-4-methyl-pentyloxy]-4′-trifluoromethyl-biphenyl-3-yl}-4-methyl-pentanoic Acid]	
710 nM	CC(C)CC(C(=O)O)c1cc(C(=O)c2cc(Cl)cc(Cl)c2)cc(-c2ccc(C(F)(F)F)cc2)c1 (centres unmarked) [Example 22, 2-[5-(3,5-Dichloro-benzoyl)-4′-trifluoromethyl-biphenyl-3-yl]-4-methyl-pentanoic Acid]	
140 nM	CC(C)CC(C(=O)O)c1cc(/C=C/c2ccc(-c3ccccc3)cc2)cc(-c2ccc(C(F)(F)F)cc2)c1 (centres unmarked) [Example 23, 2-[5-(2-Biphenyl-4-yl-vinyl)-4′-trifluoromethyl-biphenyl-3-yl]-4-methyl-pentanoic Acid]	
210 nM	CC(C)CC(C(=O)O)c1cc(CCc2ccc(-c3ccccc3)cc2)cc(-c2ccc(C(F)(F)F)cc2)c1 (centres unmarked) [Example 24, 2-[5-(2-Biphenyl-4-yl-ethyl)-4′-trifluoromethyl-biphenyl-3-yl]-4-methyl-pentanoic Acid]	
1790 nM	CC(C)CC(C(=O)O)c1cc(NC(=O)c2cccc(C(F)(F)F)c2)cc(-c2ccc(C(F)(F)F)cc2)c1 (centres unmarked) [Example 25, 4-Methyl-2-[4′-trifluoromethyl-5-(3-trifluoromethyl-benzoylamino)-biphenyl-3-yl]-pentanoic Acid]	
700 nM	CC(C)CC(C(=O)O)c1cc(-c2ccc(C(F)(F)F)cc2)cc(C2CCCC(C(F)(F)F)N2)c1 (centres unmarked) [Example 27, 4-Methyl-2-[4′-trifluoromethyl-5-(6-trifluoromethyl-piperidin-2-yl)-biphenyl-3-yl]-pentanoic Acid]	
110 nM	CC(C)CCN1C(c2cc(-c3ccc(C(F)(F)F)cc3)cc(C(CC(C)C)C(=O)O)c2)CCCC1C(F)(F)F (centres unmarked) [Example 28, 4-Methyl-2-{5-[1-(3-methyl-butyl)-6-trifluoromethyl-piperidin-2-yl]-4′-trifluoromethyl-biphenyl-3-yl}-pentanoic Acid]	
270 nM	CC(C)CCN(Cc1cc(-c2ccc(C(F)(F)F)cc2)cc(C(CC(C)C)C(=O)O)c1)Cc1cc(F)c(F)c(F)c1 (centres unmarked) [Example 29, 4-Methyl-2-(5-{[(3-methyl-butyl)-(3,4,5-trifluoro-benzyl)-amino]-methyl}-4′-trifluoromethyl-biphenyl-3-yl)-pentanoic Acid]	
250 nM	CC(C)CCN(Cc1cc(-c2ccc(C(F)(F)F)cc2)cc(C(CC(C)C)C(=O)O)c1)Cc1cc(C(F)(F)F)cc(C(F)(F)F)c1 (centres unmarked) [Example 30, 2-(5-{[(3,5-Bis-trifluoromethyl-benzyl)-(3-methyl-butyl)-amino]-methyl}-4′-trifluoromethyl-biphenyl-3-yl)-4-methyl-pentanoic Acid]	
	CC(C)CC(C(=O)O)c1cc(-c2ccc(C(F)(F)F)cc2)cc(C2CCN(Cc3ccc(C(F)(F)F)cc3)CC2)c1 (centres unmarked) [Example 31, 4-Methyl-2-{4′-trifluoromethyl-5-[1-(4-trifluoromethyl-benzyl)-piperidin-4-yl]-biphenyl-3-yl}-pentanoic Acid]	% @ 0.3 uM (WTAPP): 8% @ 0.3 uM
2080 nM	CC(C)CCC(c1ccc(C(F)(F)F)cc1)N1CCC(c2cc(-c3ccc(C(F)(F)F)cc3)cc(C(CC(C)C)C(=O)O)c2)CC1 (centres unmarked) [Example 32, 4-Methyl-2-(5-{1-[4-methyl-1-(4-trifluoromethyl-phenyl)-pentyl]-piperidin-4-yl}-4′-trifluoromethyl-biphenyl-3-yl)-pentanoic Acid]	

Molecule	EC50	further results
4-Methyl-2-[4′-trifluoromethyl-5-(4-trifluoromethyl-phenylamino)-biphenyl-3-yl]-pentanoic Acid [Example 10]	280 nM	
